The record followed here is patent US10221160B2, “Metalloenzyme inhibitor compounds” (Mycovia Pharmaceuticals, Inc., priority 2012, dated 2019).

In brackets after ≈: the same amount, converted by molar mass.

In the first assay the test system is C. albicans. The experiment in a line: Minimum Inhibitory Concentration (MIC), CLSI M27-A2. The settings on record: Candida albicans, 48 h, about 50% growth reduction, approximately 48 h at 35 °C, read-out: Candida MIC. Type of assay: cell-based. As to the method: A. Minimum Inhibitory Concentration (MIC) Compounds were assessed for their ability to inhibit the growth of common strains of fungus, C. albicans using a standardized procedure (CLSI M27-A2). Stock solutions of the test compounds and standards were prepared in DMSO at 1,600 μg/mL (C. albicans). Eleven, serial, one-half dilutions of compounds were prepared in 96-well plates in RPMI+MOPS. The assay concentration ranges were 8-0.001 μg/mL (C. albicans). Cell suspensions of C. albicans were prepared and added to each well at concentrations of approximately 3.7×10^3 colony-forming-units per milliliter (cfu/mL). All testing was in duplicate. The inoculated plates were incubated for approximately 48 h at 35±1° C. At the completion of incubation the wells of each plate were evaluated visually for the presence of fungal growth. […] For QC purposes C. krusei isolate ATCC 6258 (4.0×10^3 cfu/mL) was included in the VOR assay.
Turning to `OC(Cn1cncn1)(Cn1cncn1)c1ccc(F)cc1F` [Fluconazole, reference compound], the MIC worked out at 0.5 µg/mL (≈ 1.63 µM).
Regarding `C[C@@H](c1ncncc1F)[C@](O)(Cn1cncn1)c1ccc(F)cc1F` [Voriconazole, reference compound], the MIC stood at 0.016 µg/mL (≈ 0.0458 µM).

The same assay, now with this note: Candida albicans, rating scale, read-out: Candida MIC Rating.
On to `Oc1cccc(-c2ccc(C(F)(F)C(O)(Cn3cnnn3)c3ccc(F)cc3F)nc2)c1` (stereo not shown) [Example 30, 3-(6-(2-(2,4-Difluorophenyl)-1,1-difluoro-2-hydroxy-3-(1H-tetrazol-1-yl)propyl)pyridin-3-yl)phenol], for which the MIC is below 0.5 µg/mL.
Still for that read-out and setting: with `OC(Cn1cnnn1)(c1ccc(F)cc1F)C(F)(F)c1ccc(-c2cccc(C(F)(F)F)c2)cn1` (stereo not shown) [Example 31, 2-(2,4-Difluorophenyl)-1,1-difluoro-3-(1H-tetrazol-1-yl)-1-(5-(3-(trifluoromethyl)phenyl)pyridin-2-yl)propan-2-ol] the figure was below 0.5 µg/mL; with `O=[N+]([O-])c1ccc(-c2ccc(C(F)(F)C(O)(Cn3cnnn3)c3ccc(F)cc3F)nc2)cc1` (stereo not shown) [Example 32, 2-(2,4-Difluorophenyl)-1,1-difluoro-1-(5-(4-nitrophenyl)pyridin-2-yl)-3-(1H-tetrazol-1-yl)propan-2-ol], below 0.5 µg/mL; with `O=C(c1ccc(-c2ccc(C(F)(F)C(O)(Cn3cnnn3)c3ccc(F)cc3F)nc2)cc1)C(F)(F)F` (stereo not shown) [Example 33, 1-(4-(6-(2-(2,4-Difluorophenyl)-1,1-difluoro-2-hydroxy-3-(1H-tetrazol-1-yl)propyl)pyridin-3-yl)phenyl)-2,2,2-trifluoroethanone], below 0.5 µg/mL.
Turning to `OC(Cn1cnnn1)(c1ccc(Cl)cc1F)C(F)(F)c1ccc(-c2ccc(OC(F)(F)F)cc2)cn1` (stereo not shown) [Example 34, 2-(4-Chloro-2-fluorophenyl)-1,1-difluoro-3-(1H-tetrazol-1-yl)-1-(5-(4-(trifluoromethoxy)phenyl)pyridin-2-yl)propan-2-ol], the MIC is below 0.5 µg/mL.
On the same count and under the same terms, with `OC(Cn1cnnn1)(c1ccc(F)cc1F)C(F)(F)c1ccc(-c2ccccc2)cn1` (stereo not shown) [Example 35, 2-(2,4-Difluorophenyl)-1,1-difluoro-1-(5-phenylpyridin-2-yl)-3-(1H-tetrazol-1-yl)propan-2-ol] the figure was below 0.5 µg/mL; with `OC(Cn1cnnn1)(c1ccc(F)cc1F)C(F)(F)c1ccc(-c2ccc(N3CCOCC3)cc2)cn1` (stereo not shown) [Example 36, 2-(2,4-Difluorophenyl)-1,1-difluoro-1-(5-(4-morpholinophenyl)pyridin-2-yl)-3-(1H-tetrazol-1-yl)propan-2-ol], below 0.5 µg/mL; with `O=C(Nc1ccc(-c2ccc(C(F)(F)C(O)(Cn3cnnn3)c3ccc(F)cc3F)nc2)cc1)C(F)(F)F` (stereo not shown) [Example 37, N-(4-(6-(2-(2,4-Difluorophenyl)-1,1-difluoro-2-hydroxy-3-(1H-tetrazol-1-yl)propyl)pyridin-3-yl)phenyl)-2,2,2-trifluoroacetamide], below 0.5 µg/mL.
Same read-out and setting: with `OC(Cn1cnnn1)(c1ccc(F)cc1F)C(F)(F)c1ccc(-c2ccc(OC(F)F)cc2)cn1` (stereo not shown) [Example 38, 1-(5-(4-(Difluoromethoxy)phenyl)pyridin-2-yl)-2-(2,4-difluorophenyl)-1,1-difluoro-3-(1H-tetrazol-1-yl)propan-2-ol] the figure was below 0.5 µg/mL.
Still for that read-out and setting: the result for `OC(Cn1cnnn1)(c1ccc(F)cc1F)C(F)(F)c1ccc(-c2ccc(SC(F)F)cc2)cn1` (stereo not shown) [Example 40] reads below 0.5 µg/mL.
As for `OC(Cn1cnnn1)(c1ccc(F)cc1F)C(F)(F)c1ccc(-c2ccc(CC(F)(F)F)cc2)cn1` (stereo not shown) [Example 41, 2-(2,4-Difluorophenyl)-1,1-difluoro-3-(1H-tetrazol-1-yl)-1-(5-(4-(2,2,2-trifluoroethyl)phenyl)pyridin-2-yl)propan-2-ol], the MIC is below 0.5 µg/mL.
Same read-out and setting: with `CNC(=O)c1ccc(-c2ccc(C(F)(F)C(O)(Cn3cnnn3)c3ccc(F)cc3F)nc2)cc1` (stereo not shown) [Example 42, 4-(6-(2-(2,4-Difluorophenyl)-1,1-difluoro-2-hydroxy-3-(1H-tetrazol-1-yl)propyl)pyridin-3-yl)-N-methylbenzamide] the figure was below 0.5 µg/mL; with `CCOC(=O)C(F)(F)Oc1ccc(-c2ccc(C(F)(F)C(O)(Cn3cnnn3)c3ccc(F)cc3F)nc2)cc1` (stereo not shown) [Example 43, Ethyl 2-(4-(6-(2-(2,4-difluorophenyl)-1,1-difluoro-2-hydroxy-3-(1H-tetrazol-1-yl)propyl)pyridin-3-yl)phenoxy)-2,2-difluoroacetate], below 0.5 µg/mL.
On the same count and under the same terms, with `OC(Cn1cnnn1)(c1ccc(F)cc1F)C(F)(F)c1ccc(-c2ccc(OCCC(F)(F)F)cc2)cn1` (stereo not shown) [Example 44, 2-(2,4-Difluorophenyl)-1,1-difluoro-3-(1H-tetrazol-1-yl)-1-(5-(4-(3,3,3-trifluoropropoxy)phenyl)pyridin-2-yl)propan-2-ol] the figure was below 0.5 µg/mL; with `OC(Cn1cnnn1)(c1ccc(F)cc1F)C(F)(F)c1ccc(-c2ccc(SCC(F)(F)F)cc2)cn1` (stereo not shown) [Example 45, 2-(2,4-Difluorophenyl)-1,1-difluoro-3-(1H-tetrazol-1-yl)-1-(5-(4-((2,2,2-trifluoroethyl)thio)phenyl)pyridin-2-yl)propan-2-ol], below 0.5 µg/mL; with `CC(F)(c1ccc(-c2ccc(OC(F)(F)F)cc2)cn1)C(O)(Cn1cnnn1)c1ccc(F)cc1F` (stereo not shown) [Example 46, 2-(2,4-Difluorophenyl)-3-fluoro-1-(1H-tetrazol-1-yl)-3-(5-(4-(trifluoromethoxy)phenyl)-pyridin-2-yl)butan-2-ol], 0.5 to 1.5 µg/mL (≈ 0.982 to 2.94 µM).
Same read-out and setting: the result for `CC(F)(c1ccc(-c2ccc(F)cc2)cn1)C(O)(Cn1ncnn1)c1ccc(F)cc1F` (stereo not shown) [Example 48, 2-(2,4-Difluorophenyl)-3-fluoro-3-(5-(4-fluorophenyl)pyridin-2-yl)-1-(2H-tetrazol-2-yl)butan-2-ol] reads 1.5 to 4 µg/mL (≈ 3.38 to 9.02 µM).

The assay is the same for the next values; noted with them: rating scale.
As for `OC(Cn1cnnn1)(c1ccc(F)cc1F)C(F)(F)c1ccc(-c2ccc(OCC(F)(F)F)cc2)cn1` (stereo not shown) [Example 39, 2-(2,4-Difluorophenyl)-1,1-difluoro-3-(1H-tetrazol-1-yl)-1-(5-(4-(2,2,2-trifluoroethoxy)phenyl)pyridin-2-yl)propan-2-ol], the “Candida MIC Rating” value was “C (>1.5-4)”.
Same read-out and setting: with `CC(F)(c1ccc(-c2ccc(OC(F)(F)F)cc2)cn1)C(O)(Cn1cnnn1)c1ccc(F)cc1F` (stereo not shown) [Example 47, 2-(2,4-Difluorophenyl)-3-fluoro-1-(1H-tetrazol-1-yl)-3-(5-(4-(trifluoromethoxy)phenyl)-pyridin-2-yl)butan-2-ol] the entry was “A (≤0.5)”; with `CC(F)(c1ccc(-c2ccc(F)cc2)cn1)C(O)(Cn1cnnn1)c1ccc(F)cc1F` (stereo not shown) [Example 51, 2-(2,4-Difluorophenyl)-3-fluoro-3-(5-(4-fluorophenyl)pyridin-2-yl)-1-(1H-tetrazol-1-yl)butan-2-ol], “A (≤0.5)”.
On the same count and under the same terms, with `CC(F)(c1ccc(-c2ccc(C(F)(F)F)cc2)cn1)C(O)(Cn1cnnn1)c1ccc(F)cc1F` (stereo not shown) [Example 52, 2-(2,4-Difluorophenyl)-3-fluoro-1-(1H-tetrazol-1-yl)-3-(5-(4-(trifluoromethyl)phenyl)pyridin-2-yl)butan-2-ol] the entry was “C (>1.5-4)”.
Turning to `CC(F)(c1ccc(-c2ccc(C(F)(F)F)cc2)cn1)C(O)(Cn1cnnn1)c1ccc(F)cc1F` (stereo not shown) [Example 53, 2-(2,4-Difluorophenyl)-3-fluoro-1-(1H-tetrazol-1-yl)-3-(5-(4-(trifluoromethyl)phenyl)pyridin-2-yl)butan-2-ol], the “Candida MIC Rating” value was “B (>0.5-1.5)”.
The same measure, in the same setting: with `CC(F)(c1ccc(-c2ccc(Cl)cc2)cn1)C(O)(Cn1cnnn1)c1ccc(F)cc1F` (stereo not shown) [Example 54, 3-(5-(4-Chlorophenyl)pyridin-2-yl)-2-(2,4-difluorophenyl)-3-fluoro-1-(1H-tetrazol-1-yl)butan-2-ol] the entry was “C (>1.5-4)”.
Regarding `CC(F)(c1ccc(-c2ccc(Cl)cc2)cn1)C(O)(Cn1cnnn1)c1ccc(F)cc1F` (stereo not shown) [Example 55, 3-(5-(4-Chlorophenyl)pyridin-2-yl)-2-(2,4-difluorophenyl)-3-fluoro-1-(1H-tetrazol-1-yl)butan-2-ol], the “Candida MIC Rating” value is given as “A (≤0.5)”.
On the same count and under the same terms, with `CC(F)(c1ccc(-c2ccc(OCC(F)(F)F)cc2)cn1)C(O)(Cn1cnnn1)c1ccc(F)cc1F` (stereo not shown) [Example 56, 2-(2,4-Difluorophenyl)-3-fluoro-1-(1H-tetrazol-1-yl)-3-(5-(4-(2,2,2-trifluoroethoxy)phenyl)pyridin-2-yl)butan-2-ol] the entry was “C (>1.5-4)”; with `CC(F)(c1ccc(-c2ccc(OCC(F)(F)F)cc2)cn1)C(O)(Cn1cnnn1)c1ccc(F)cc1F` (stereo not shown) [Example 57, 2-(2,4-Difluorophenyl)-3-fluoro-1-(1H-tetrazol-1-yl)-3-(5-(4-(2,2,2-trifluoroethoxy)phenyl)pyridin-2-yl)butan-2-ol], “A (≤0.5)”.

In general, MIC refers to the smallest concentration in the dilution series that meets the test's criterion for growth inhibition.
